Assay results reported in paper PMC5428354, “Screening of a natural compound library identifies emodin, a natural compound from Rheum palmatum Linn that inhibits DPP4” (PeerJ, 2017).
Where two headings read alike, the source gives them in different places. Values belong to the molecule of their own block, whether it stands above or below them.

Target: DPP4 (Homo sapiens, UniProt P27487)
Experiment: DPP4 activity assay (DPP4 inhibitor screening assay kit, Cayman);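 also: fluorescence read at excitation 360 nm and emission 460 nm after the enzyme reaction ran 30 min at 37 °C in a 96-well plate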
Type: biochemical
Set-up: purchased Cayman Chemical, Ann Arbor, MI, USA
Conditions: for remaining activity at 10 µM: 0.5 h
[1] = 10 µM, control mean 100.0, Figure 1A raw data
[2] = 10 µM, control mean 100.0, mean of Exp 1-3
[3] = 10 µM, control mean 100.0, Figure 1A raw data, read-out: DPP4 activity in library screen, Exp 1
[4] = 10 µM, control mean 100.0, Figure 1A raw data, read-out: DPP4 activity in library screen, Exp 2
[5] = 10 µM, control mean 100.0, Figure 1A raw data, read-out: DPP4 activity in library screen, Exp 3
[6] = 10 µM, control mean 100.0, mean of Exp 1-3, read-out: DPP4 activity in library screen, Mean

Chain of DPP4 (P27487 whole entry): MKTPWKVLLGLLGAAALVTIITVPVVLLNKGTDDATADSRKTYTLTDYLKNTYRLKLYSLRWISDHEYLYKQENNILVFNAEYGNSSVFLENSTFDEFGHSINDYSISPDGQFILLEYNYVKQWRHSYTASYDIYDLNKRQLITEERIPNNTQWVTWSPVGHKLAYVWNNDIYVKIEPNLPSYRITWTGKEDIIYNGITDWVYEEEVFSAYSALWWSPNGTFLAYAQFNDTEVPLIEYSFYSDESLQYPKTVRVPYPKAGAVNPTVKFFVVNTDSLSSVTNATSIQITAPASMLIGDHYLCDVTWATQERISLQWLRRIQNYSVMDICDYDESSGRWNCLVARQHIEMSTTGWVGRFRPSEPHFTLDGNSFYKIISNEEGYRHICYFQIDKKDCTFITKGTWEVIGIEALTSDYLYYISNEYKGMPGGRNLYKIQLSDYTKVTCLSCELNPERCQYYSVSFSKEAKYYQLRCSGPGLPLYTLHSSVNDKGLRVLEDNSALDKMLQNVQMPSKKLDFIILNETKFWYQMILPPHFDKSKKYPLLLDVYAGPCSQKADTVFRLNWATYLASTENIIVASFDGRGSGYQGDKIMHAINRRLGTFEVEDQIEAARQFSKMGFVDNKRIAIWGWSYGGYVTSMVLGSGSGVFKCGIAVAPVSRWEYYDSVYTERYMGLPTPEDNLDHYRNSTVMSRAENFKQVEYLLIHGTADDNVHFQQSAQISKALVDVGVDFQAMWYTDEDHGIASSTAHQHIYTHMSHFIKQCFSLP

Compound: C[N+](C)(C)CC(O)CC(=O)O.[Cl-] (racemic) [DL-Carnitine HCl]
DPP4 activity in library screen, Exp 1 [1]: 97.3
DPP4 activity in library screen, Exp 2 [1]: 93.1
DPP4 activity in library screen, Exp 3 [1]: 99.1
DPP4 activity in library screen, Mean [2]: 96.5

Compound: CC(=O)c1c(O)c(C)c(O)c2c1OC1=CC(=O)C(C(C)=O)C(=O)C12C (single isomer, unassigned; (+)) [(+)-Usniacin]
DPP4 activity in library screen, Exp 1 [1]: 88.7
DPP4 activity in library screen, Exp 2 [1]: 90.4
DPP4 activity in library screen, Exp 3 [1]: 89.7
DPP4 activity in library screen, Mean [2]: 89.6

Compound: O=C1CCC[C@@H]2[C@H]3CCCN4CCC[C@@H](CN12)[C@@H]34 [(+)-Matrine]
DPP4 activity in library screen, Exp 1 [1]: 101.6
DPP4 activity in library screen, Exp 2 [1]: 98
DPP4 activity in library screen, Exp 3 [1]: 94.4
DPP4 activity in library screen, Mean [2]: 98.0

Compound: C=C1C(=O)O[C@H]2[C@H]1CC/C(C)=C/CC[C@@]1(C)O[C@@H]21 [(-)-Parthenolide]
DPP4 activity in library screen, Exp 1 [1]: 73.3
DPP4 activity in library screen, Exp 2 [1]: 84.6
DPP4 activity in library screen, Exp 3 [1]: 113.2
DPP4 activity in library screen, Mean [2]: 90.4

Compound: CC[C@@]1(O)C(=O)OCc2c1cc1n(c2=O)Cc2cc3cc(O)ccc3nc2-1 [(S)-10-Hydroxycamptothecin]
remaining activity at 10 µM [3]: 87.4%
remaining activity at 10 µM [4]: 77.6%
remaining activity at 10 µM [5]: 85.7%
remaining activity at 10 µM [6]: 83.6%

Compound: CC1(C)[C@@H](O[C@H]2O[C@H](C(=O)O)[C@@H](O)[C@H](O)[C@H]2O[C@@H]2O[C@H](C(=O)O)[C@@H](O)[C@H](O)[C@H]2O)CC[C@]2(C)[C@H]3C(=O)C=C4[C@@H]5C[C@@](C)(C(=O)O)CC[C@]5(C)CC[C@@]4(C)[C@]3(C)CC[C@@H]12 [Ammonium Glycyrrhizinate]
DPP4 activity in library screen, Exp 1 [1]: 83.3
DPP4 activity in library screen, Exp 2 [1]: 106.3
DPP4 activity in library screen, Exp 3 [1]: 81.6
DPP4 activity in library screen, Mean [2]: 90.4

Compound: N#C[C@H](O[C@@H]1O[C@H](CO[C@@H]2O[C@H](CO)[C@@H](O)[C@H](O)[C@H]2O)[C@@H](O)[C@H](O)[C@H]1O)c1ccccc1 [Amygdalin]
remaining activity at 10 µM [3]: 96.2%
remaining activity at 10 µM [4]: 94.7%
remaining activity at 10 µM [5]: 92.1%
remaining activity at 10 µM [6]: 94.3%

Compound: CC(C)(O)[C@H]1CC[C@@](C)([C@H]2[C@@H](O)C[C@@]3(C)[C@@H]4C[C@H](O[C@@H]5O[C@H](CO)[C@@H](O)[C@H](O)[C@H]5O)[C@H]5C(C)(C)[C@@H](O[C@@H]6OC[C@@H](O)[C@H](O)[C@H]6O)CC[C@@]56C[C@@]46CC[C@]23C)O1 [Astragaloside A]
DPP4 activity in library screen, Exp 1 [1]: 103.8
DPP4 activity in library screen, Exp 2 [1]: 108.8
DPP4 activity in library screen, Exp 3 [1]: 101.9
DPP4 activity in library screen, Mean [2]: 104.8

Compound: O=[N+]([O-])c1ncc[nH]1 [Azomycin]
remaining activity at 10 µM [3]: 74.2%
remaining activity at 10 µM [4]: 78.5%
remaining activity at 10 µM [5]: 76.2%
remaining activity at 10 µM [6]: 76.3%

Compound: CC(C)(C)[C@]1(O)CC2OC(=O)CC23C(=O)OC2OC(=O)[C@H](O)C231 (some centres unmarked) [Bilobalide]
remaining activity at 10 µM (read-out: DPP4 activity in library screen, Exp 1): 97.2%
remaining activity at 10 µM (read-out: DPP4 activity in library screen, Exp 2): 94.5%
remaining activity at 10 µM (read-out: DPP4 activity in library screen, Exp 3): 103%
remaining activity at 10 µM (read-out: DPP4 activity in library screen, Mean): 98.2%

Compound: COc1ccc(-c2coc3cc(O)cc(O)c3c2=O)cc1 [Biochanin A]
DPP4 activity in library screen, Exp 1 [1]: 94.6
DPP4 activity in library screen, Exp 2 [1]: 100.9
DPP4 activity in library screen, Exp 3 [1]: 85.2
DPP4 activity in library screen, Mean [2]: 93.6

Compound: CCCCCCCCCCCCCCCC(=O)OC[C@@]1(O)C[C@@]23CC[C@@H]4c5ccoc5CC[C@@]4(C)[C@@H]2CC[C@@H]1C3 [Cafestol palmitate]
DPP4 activity in library screen, Exp 1 [1]: 96.3
DPP4 activity in library screen, Exp 2 [1]: 108.3
DPP4 activity in library screen, Exp 3 [1]: 144
DPP4 activity in library screen, Mean [2]: 116.2

Compound: CN1CC[C@]23c4ccccc4N[C@H]1[C@]21CCN(C)[C@H]3Nc2ccccc21 [Calycanthine]
DPP4 activity in library screen, Exp 1 [1]: 98.1
DPP4 activity in library screen, Exp 2 [1]: 98.8
DPP4 activity in library screen, Exp 3 [1]: 109.2
DPP4 activity in library screen, Mean [2]: 102.0

Compound: CCC1=C[C@@H]2CN3CCc4c([nH]c5ccccc45)[C@@](C(=O)OC)(C2)[C@@H]13 [Catharanthine]
DPP4 activity in library screen, Exp 1 [1]: 117.2
DPP4 activity in library screen, Exp 2 [1]: 93.7
DPP4 activity in library screen, Exp 3 [1]: 139.2
DPP4 activity in library screen, Mean [2]: 116.7

Compound: C=C[C@H]1CN2CC[C@H]1C[C@H]2[C@H](O)c1ccnc2ccccc12 [Cinchonidine]
remaining activity at 10 µM [3]: 90.5%
remaining activity at 10 µM [4]: 97.4%
remaining activity at 10 µM [5]: 97.3%
remaining activity at 10 µM [6]: 95.1%

Compound: C[C@H]1COC2=C1C(=O)C(=O)c1c2ccc2c1CCCC2(C)C [Cryptotanshinone]
remaining activity at 10 µM [3]: 60.3%
remaining activity at 10 µM [4]: 66.5%
remaining activity at 10 µM [5]: 58.2%
remaining activity at 10 µM [6]: 61.7%

Compound: C=C1C[C@@]2(O)O[C@@]3(C[C@H]2C(C)C)[C@@H](C)CC[C@@H]13 [Curcumol]
DPP4 activity in library screen, Exp 1 [1]: 100.6
DPP4 activity in library screen, Exp 2 [1]: 99.6
DPP4 activity in library screen, Exp 3 [1]: 110.6
DPP4 activity in library screen, Mean [2]: 103.6

Now from value to molecule:

remaining activity at 10 µM [3]: 92%
remaining activity at 10 µM [4]: 93.9%
remaining activity at 10 µM [5]: 107%
remaining activity at 10 µM [6]: 97.5%
Compound: O=C(O)CCCc1c[nH]c2ccccc12 [3-Indolebutyric acid (IBA), 3-Indolebutyric acid]

DPP4 activity in library screen, Mean [2]: auto-fluorescence
Compound: Cc1cc(=O)oc2cc(O)ccc12 [4-Methylumbelliferone (4-MU), 4-Methylumbelliferone]

remaining activity at 10 µM [3]: 93.3%
remaining activity at 10 µM [4]: 82.6%
remaining activity at 10 µM [5]: 90.6%
remaining activity at 10 µM [6]: 88.8%
Compound: N[C@@H](Cc1c[nH]c2ccc(O)cc12)C(=O)O [5-hydroxytryptophan (5-HTP), 5-hydroxytryptophan]

remaining activity at 10 µM [3]: 100%
remaining activity at 10 µM [4]: 90.2%
remaining activity at 10 µM [5]: 81.9%
remaining activity at 10 µM [6]: 90.8%
Compound: O=C(O[C@@H]1Cc2c(O)cc(O)cc2O[C@@H]1c1cc(O)c(O)c(O)c1)c1cc(O)c(O)c(O)c1 [(-)-Epigallocatechin Gallate]

remaining activity at 10 µM [3]: 91.5%
remaining activity at 10 µM [4]: 70.4%
remaining activity at 10 µM [5]: 71.7%
remaining activity at 10 µM [6]: 77.9%
Compound: O=C1c2c(O)cccc2C([C@@H]2O[C@H](CO)[C@@H](O)[C@H](O)[C@H]2O)c2cc(CO)cc(O)c21 (some centres unmarked) [Aloin]

remaining activity at 10 µM [3]: 103%
remaining activity at 10 µM [4]: 100%
remaining activity at 10 µM [5]: 96.8%
remaining activity at 10 µM [6]: 100%
Compound: C=C1CC[C@@H]2[C@](C)(CO)[C@H](O)CC[C@@]2(C)[C@@H]1C/C=C1/C(=O)OC[C@H]1O [Andrographolide]

remaining activity at 10 µM [3]: 97.4%
remaining activity at 10 µM [4]: 70.3%
remaining activity at 10 µM [5]: 67.8%
remaining activity at 10 µM [6]: 78.5%
Compound: O=c1cc(-c2ccc(O)cc2)oc2cc(O)cc(O)c12 [Apigenin]

remaining activity at 10 µM [3]: 82.6%
remaining activity at 10 µM [4]: 90.9%
remaining activity at 10 µM [5]: 116%
remaining activity at 10 µM [6]: 96.6%
Compound: COc1cc(C(C)=O)ccc1O [Apocynin]

remaining activity at 10 µM [3]: 95.9%
remaining activity at 10 µM [4]: 96.2%
remaining activity at 10 µM [5]: 96.1%
remaining activity at 10 µM [6]: 96.1%
Compound: OC[C@H]1O[C@@H](Oc2ccc(O)cc2)[C@H](O)[C@@H](O)[C@@H]1O [Arbutin]

remaining activity at 10 µM [3]: 95.1%
remaining activity at 10 µM [4]: 99%
remaining activity at 10 µM [5]: 87%
remaining activity at 10 µM [6]: 93.7%
Compound: C[C@H]1[C@H](OC(=O)CCC(=O)O)O[C@@H]2O[C@@]3(C)CC[C@H]4[C@H](C)CC[C@@H]1[C@@]24OO3 [Artesunate]

remaining activity at 10 µM [3]: 83.3%
remaining activity at 10 µM [4]: 65.3%
remaining activity at 10 µM [5]: 130%
remaining activity at 10 µM [6]: 93%
Compound: C[C@H]1[C@H](C)CC[C@]2(C(=O)O)CC[C@]3(C)C(=CC[C@@H]4[C@@]5(C)C[C@@H](O)[C@H](O)[C@@](C)(CO)[C@@H]5CC[C@]43C)[C@H]12 [Asiatic Acid]

remaining activity at 10 µM [3]: 71.4%
remaining activity at 10 µM [4]: 51.3%
remaining activity at 10 µM [5]: 111%
remaining activity at 10 µM [6]: 77.9%
Compound: O=C(O)[C@H]1O[C@@H](Oc2cc3oc(-c4ccccc4)cc(=O)c3c(O)c2O)[C@H](O)[C@@H](O)[C@@H]1O [Baicalin]

DPP4 activity in library screen, Exp 1 [1]: 52.4
DPP4 activity in library screen, Exp 2 [1]: 58.4
DPP4 activity in library screen, Exp 3 [1]: 54.2
DPP4 activity in library screen, Mean [2]: 55.0
Compound: COc1ccc2cc3[n+](cc2c1OC)CCc1cc2c(cc1-3)OCO2.[Cl-] [Berberine HCl]

remaining activity at 10 µM [3]: 114%
remaining activity at 10 µM [4]: 102%
remaining activity at 10 µM [5]: 73.5%
remaining activity at 10 µM [6]: 96.3%
Compound: COc1c(O)cc2c(c1O)[C@@H]1O[C@H](CO)[C@@H](O)[C@H](O)[C@H]1OC2=O [Bergenin]

remaining activity at 10 µM [3]: 97.5%
remaining activity at 10 µM [4]: 98.7%
remaining activity at 10 µM [5]: 78.2%
remaining activity at 10 µM [6]: 91.5%
Compound: CCCC[N+]1(C)[C@@H]2C[C@@H](OC(=O)[C@H](CO)c3ccccc3)C[C@H]1[C@@H]1O[C@@H]12 (some centres unmarked) [Butylscopolamine bromide]

remaining activity at 10 µM [3]: 71.3%
remaining activity at 10 µM [4]: 81.8%
remaining activity at 10 µM [5]: 102%
remaining activity at 10 µM [6]: 84.9%
Compound: O=C(/C=C/c1ccc(O)c(O)c1)O[C@@H]1C[C@](O)(C(=O)O)C[C@@H](O)[C@H]1O [Chlorogenic Acid]

remaining activity at 10 µM [3]: 85.4%
remaining activity at 10 µM [4]: 87.6%
remaining activity at 10 µM [5]: 71.2%
remaining activity at 10 µM [6]: 81.4%
Compound: O=c1cc(-c2ccccc2)oc2cc(O)cc(O)c12 [Chrysin]

DPP4 activity in library screen, Exp 1 [1]: 110.3
DPP4 activity in library screen, Exp 2 [1]: 95
DPP4 activity in library screen, Exp 3 [1]: 97.8
DPP4 activity in library screen, Mean [2]: 101.0
Compound: Cl.N=c1ccn2c(n1)O[C@H]1[C@H](O)[C@@H](CO)O[C@H]12 [Cyclocytidine HCl]
